From paper PMC9186362, “Design and biological evaluation of substituted 5,7-dihydro-6H-indolo[2,3-c]quinolin-6-one as novel selective Haspin inhibitors” (Journal of Enzyme Inhibition and Medicinal Chemistry, 2022)

Assays:
Assay in all cases: SelectScreen ZLYTE
Format in all cases: biochemical
ABL1 E255K = target: T1, ABL1 E255K (Homo sapiens, UniProt P00519, E255K); conditions: ATP Km, read-out: Percentage of inhibition
T1 construct: purchased Life Technologies
Summary of the method: (§1)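 Percent inhibition values come from a one-concentration (1 μM) profiling run covering a wide set of kinases.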

AMPK (A1/B2/G2) = AMPK (A1/B2/G2) (Homo sapiens, UniProt Q13131); conditions: ATP Km, read-out: Percentage of inhibition
Summary of the method: as §1

AMPK (A2/B1/G2) = AMPK (A2/B1/G2) (Homo sapiens, UniProt P54646); conditions: ATP Km, read-out: Percentage of inhibition
Summary of the method: as §1

CLK3 = CLK3 (Homo sapiens, UniProt P49761); conditions: ATP Km, read-out: Percentage of inhibition
Summary of the method: as §1

CSNK1A1 (CK1 alpha 1) = target: T2, CSNK1A1 (CK1 alpha 1) (Homo sapiens, UniProt P48729); conditions: ATP Km, read-out: Percentage of inhibition
T2 construct: purchased Life Technologies (SelectScreen Whole Panel)
Summary of the method: as §1

CSNK1D (CK1 delta) = target: T3, CSNK1D (CK1 delta) (Homo sapiens, UniProt P48730); conditions: ATP Km, read-out: Percentage of inhibition
T3 construct: purchased Life Technologies (SelectScreen service)
Summary of the method: as §1

EGFR (ErbB1) T790M = target: T4, EGFR (ErbB1) T790M (Homo sapiens, UniProt P00533, T790M); conditions: ATP Km, read-out: Percentage of inhibition
T4 construct: purchased Life Technologies
Summary of the method: as §1

EPHB1 = target: T5, EPHB1 (Homo sapiens, UniProt P54762); conditions: ATP Km, read-out: Percentage of inhibition
T5 construct: purchased Life Technologies (SelectScreen Whole Panel)
Summary of the method: as §1

FGFR1 = target: T6, FGFR1 (Homo sapiens, UniProt P11362); conditions: ATP Km, read-out: Percentage of inhibition
T6 construct: purchased Life Technologies
Summary of the method: as §1

FGFR2 N549H = target: T7, FGFR2 N549H (Homo sapiens, UniProt P21802, N549H); conditions: ATP Km, read-out: Percentage of inhibition
T7 construct: purchased Life Technologies (SelectScreen service)
Summary of the method: as §1

FGFR3 = target: T8, FGFR3 (Homo sapiens, UniProt P22607); conditions: ATP Km, read-out: Percentage of inhibition
T8 construct: purchased Life Technologies
Summary of the method: as §1

FGR = target: T9, FGR (Homo sapiens, UniProt P09769); conditions: ATP Km, read-out: Percentage of inhibition
T9 construct: purchased Life Technologies (SelectScreen service)
Summary of the method: as §1

GSK3A (GSK3 alpha) = target: T10, GSK3A (GSK3 alpha) (Homo sapiens, UniProt P49840); conditions: ATP Km, read-out: Percentage of inhibition
T10 construct: purchased Life Technologies (SelectScreen service)
Summary of the method: as §1

IGF1R = IGF1R (Homo sapiens, UniProt P08069); conditions: ATP Km, read-out: Percentage of inhibition
Summary of the method: as §1

MAPK12 (p38 gamma) = MAPK12 (p38 gamma) (Homo sapiens, UniProt P53778); conditions: ATP Km, read-out: Percentage of inhibition
Summary of the method: as §1

MAPK9 (JNK2) = target: T11, MAPK9 (JNK2) (Homo sapiens, UniProt P45984); conditions: ATP 100 µM, read-out: Percentage of inhibition
T11 construct: purchased Life Technologies (SelectScreen service)
Summary of the method: as §1

MARK3 = target: T12, MARK3 (Homo sapiens, UniProt P27448); conditions: ATP Km, read-out: Percentage of inhibition
T12 construct: purchased Life Technologies
Summary of the method: as §1

MINK1 = MINK1 (Homo sapiens, UniProt Q8N4C8); conditions: ATP Km, read-out: Percentage of inhibition
Summary of the method: as §1

MST4 = MST4 (Homo sapiens, UniProt Q9P289); conditions: ATP Km, read-out: Percentage of inhibition
Summary of the method: as §1

NEK1 = target: T13, NEK1 (Homo sapiens, UniProt Q96PY6); conditions: ATP Km, read-out: Percentage of inhibition
T13 construct: purchased Life Technologies (SelectScreen Whole Panel service)
Summary of the method: as §1

NEK6 = target: T14, NEK6 (Homo sapiens, UniProt Q9HC98); conditions: ATP Km, read-out: Percentage of inhibition
T14 construct: purchased Life Technologies (SelectScreen)
Summary of the method: as §1

NTRK3 (TRKC) = target: T15, NTRK3 (TRKC) (Homo sapiens, UniProt Q16288); conditions: ATP Km, read-out: Percentage of inhibition
T15 construct: purchased Life Technologies
Summary of the method: as §1

PAK1 = PAK1 (Homo sapiens, UniProt Q13153); conditions: ATP Km, read-out: Percentage of inhibition
Summary of the method: as §1

PAK2 (PAK65) = PAK2 (PAK65) (Homo sapiens, UniProt Q13177); conditions: ATP Km, read-out: Percentage of inhibition
Summary of the method: as §1

PDK1 Direct = target: T16, PDK1 Direct (Homo sapiens, UniProt O15530); conditions: ATP Km, read-out: Percentage of inhibition
T16 construct: purchased Life Technologies (SelectScreen Whole Panel service)
Summary of the method: as §1

PEAK1 = target: T17, PEAK1 (Homo sapiens, UniProt Q9H792); conditions: ATP Km, read-out: Percentage of inhibition
T17 construct: purchased Life Technologies (SelectScreen Whole Panel)
Summary of the method: as §1

PIM3 = target: T18, PIM3 (Homo sapiens, UniProt Q86V86); conditions: ATP Km, read-out: Percentage of inhibition
T18 construct: purchased Life Technologies
Summary of the method: as §1

PRKACA (PKA) = target: T19, PRKACA (PKA) (Homo sapiens, UniProt P17612); conditions: ATP Km, read-out: Percentage of inhibition
T19 construct: purchased Life Technologies (SelectScreen)
Summary of the method: as §1

PRKCE (PKC epsilon) = target: T20, PRKCE (PKC epsilon) (Homo sapiens, UniProt Q02156); conditions: ATP Km, read-out: Percentage of inhibition
T20 construct: purchased Life Technologies (SelectScreen Whole Panel service)
Summary of the method: as §1

PRKCH (PKC eta) = PRKCH (PKC eta) (Homo sapiens, UniProt P24723); conditions: ATP Km, read-out: Percentage of inhibition
Summary of the method: as §1

PRKCI (PKC iota) = PRKCI (PKC iota) (Homo sapiens, UniProt P41743); conditions: ATP Km, read-out: Percentage of inhibition
Summary of the method: as §1

PRKG1 = target: T21, PRKG1 (Homo sapiens, UniProt Q13976); conditions: ATP Km, read-out: Percentage of inhibition
T21 construct: purchased Life Technologies (SelectScreen Whole Panel service)
Summary of the method: as §1

PRKX = PRKX (Homo sapiens, UniProt P51817); conditions: ATP Km, read-out: Percentage of inhibition
Summary of the method: as §1

PTK6 (Brk) = PTK6 (Brk) (Homo sapiens, UniProt Q13882); conditions: ATP Km, read-out: Percentage of inhibition
Summary of the method: as §1

RET S891A = target: T22, RET S891A (Homo sapiens, UniProt P07949, S891A); conditions: ATP Km, read-out: Percentage of inhibition
T22 construct: purchased Life Technologies
Summary of the method: as §1

SRPK1 = SRPK1 (Homo sapiens, UniProt Q96SB4); conditions: ATP Km, read-out: Percentage of inhibition
Summary of the method: as §1

STK24 (MST3) = STK24 (MST3) (Homo sapiens, UniProt Q9Y6E0); conditions: ATP Km, read-out: Percentage of inhibition
Summary of the method: as §1

TXK = TXK (Homo sapiens, UniProt P42681); conditions: ATP Km, read-out: Percentage of inhibition
Summary of the method: as §1

TYK2 = target: T23, TYK2 (Homo sapiens, UniProt P29597); conditions: ATP Km, read-out: Percentage of inhibition
T23 construct: purchased Life Technologies (SelectScreen Whole Panel)
Summary of the method: as §1

T17 sequence (Q9H792 whole entry): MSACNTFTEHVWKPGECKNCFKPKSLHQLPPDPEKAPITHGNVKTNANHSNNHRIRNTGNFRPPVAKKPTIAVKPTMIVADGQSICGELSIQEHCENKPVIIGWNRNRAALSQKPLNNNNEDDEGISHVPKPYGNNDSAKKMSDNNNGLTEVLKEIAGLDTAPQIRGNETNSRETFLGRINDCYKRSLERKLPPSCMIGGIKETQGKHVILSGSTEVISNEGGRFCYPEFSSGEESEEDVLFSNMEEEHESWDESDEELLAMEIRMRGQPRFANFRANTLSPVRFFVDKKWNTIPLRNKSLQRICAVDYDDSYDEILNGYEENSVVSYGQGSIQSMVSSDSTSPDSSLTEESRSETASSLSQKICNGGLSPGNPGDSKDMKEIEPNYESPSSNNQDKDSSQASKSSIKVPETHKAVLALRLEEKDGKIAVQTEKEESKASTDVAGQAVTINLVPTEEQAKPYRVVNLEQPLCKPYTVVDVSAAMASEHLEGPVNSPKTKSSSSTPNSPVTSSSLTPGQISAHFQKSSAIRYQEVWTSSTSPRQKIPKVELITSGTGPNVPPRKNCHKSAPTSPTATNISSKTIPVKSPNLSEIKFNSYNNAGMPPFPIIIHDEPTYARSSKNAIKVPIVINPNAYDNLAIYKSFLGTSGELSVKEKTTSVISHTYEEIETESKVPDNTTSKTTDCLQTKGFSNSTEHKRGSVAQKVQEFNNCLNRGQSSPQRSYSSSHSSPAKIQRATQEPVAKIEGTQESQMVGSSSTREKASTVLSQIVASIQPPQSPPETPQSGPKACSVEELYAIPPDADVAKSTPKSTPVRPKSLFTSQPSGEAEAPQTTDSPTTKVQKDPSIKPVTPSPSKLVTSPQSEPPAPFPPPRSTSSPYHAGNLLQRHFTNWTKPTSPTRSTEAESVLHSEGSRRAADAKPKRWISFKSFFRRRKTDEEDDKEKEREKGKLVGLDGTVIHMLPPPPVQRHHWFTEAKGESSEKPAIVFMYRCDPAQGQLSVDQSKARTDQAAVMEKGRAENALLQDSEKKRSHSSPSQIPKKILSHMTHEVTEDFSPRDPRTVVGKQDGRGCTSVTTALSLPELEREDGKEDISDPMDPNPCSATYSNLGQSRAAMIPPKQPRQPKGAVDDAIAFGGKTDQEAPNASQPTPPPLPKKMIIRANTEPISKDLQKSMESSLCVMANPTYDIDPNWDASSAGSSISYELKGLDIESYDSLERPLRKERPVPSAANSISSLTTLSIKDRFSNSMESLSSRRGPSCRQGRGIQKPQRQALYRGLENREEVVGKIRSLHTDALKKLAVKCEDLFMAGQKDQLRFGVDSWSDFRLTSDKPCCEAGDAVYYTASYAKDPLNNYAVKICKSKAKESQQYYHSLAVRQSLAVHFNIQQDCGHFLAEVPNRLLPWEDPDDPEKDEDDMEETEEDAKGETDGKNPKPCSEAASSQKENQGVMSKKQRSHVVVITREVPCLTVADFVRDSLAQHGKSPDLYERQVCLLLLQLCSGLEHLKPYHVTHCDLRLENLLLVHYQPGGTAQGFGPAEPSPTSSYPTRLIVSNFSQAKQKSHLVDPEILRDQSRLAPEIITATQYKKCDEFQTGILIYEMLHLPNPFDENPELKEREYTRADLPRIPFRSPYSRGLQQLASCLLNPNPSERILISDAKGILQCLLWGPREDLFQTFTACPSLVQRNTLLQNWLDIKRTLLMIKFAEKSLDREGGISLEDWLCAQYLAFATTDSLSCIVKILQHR
Chain of MINK1 (Q8N4C8 whole entry): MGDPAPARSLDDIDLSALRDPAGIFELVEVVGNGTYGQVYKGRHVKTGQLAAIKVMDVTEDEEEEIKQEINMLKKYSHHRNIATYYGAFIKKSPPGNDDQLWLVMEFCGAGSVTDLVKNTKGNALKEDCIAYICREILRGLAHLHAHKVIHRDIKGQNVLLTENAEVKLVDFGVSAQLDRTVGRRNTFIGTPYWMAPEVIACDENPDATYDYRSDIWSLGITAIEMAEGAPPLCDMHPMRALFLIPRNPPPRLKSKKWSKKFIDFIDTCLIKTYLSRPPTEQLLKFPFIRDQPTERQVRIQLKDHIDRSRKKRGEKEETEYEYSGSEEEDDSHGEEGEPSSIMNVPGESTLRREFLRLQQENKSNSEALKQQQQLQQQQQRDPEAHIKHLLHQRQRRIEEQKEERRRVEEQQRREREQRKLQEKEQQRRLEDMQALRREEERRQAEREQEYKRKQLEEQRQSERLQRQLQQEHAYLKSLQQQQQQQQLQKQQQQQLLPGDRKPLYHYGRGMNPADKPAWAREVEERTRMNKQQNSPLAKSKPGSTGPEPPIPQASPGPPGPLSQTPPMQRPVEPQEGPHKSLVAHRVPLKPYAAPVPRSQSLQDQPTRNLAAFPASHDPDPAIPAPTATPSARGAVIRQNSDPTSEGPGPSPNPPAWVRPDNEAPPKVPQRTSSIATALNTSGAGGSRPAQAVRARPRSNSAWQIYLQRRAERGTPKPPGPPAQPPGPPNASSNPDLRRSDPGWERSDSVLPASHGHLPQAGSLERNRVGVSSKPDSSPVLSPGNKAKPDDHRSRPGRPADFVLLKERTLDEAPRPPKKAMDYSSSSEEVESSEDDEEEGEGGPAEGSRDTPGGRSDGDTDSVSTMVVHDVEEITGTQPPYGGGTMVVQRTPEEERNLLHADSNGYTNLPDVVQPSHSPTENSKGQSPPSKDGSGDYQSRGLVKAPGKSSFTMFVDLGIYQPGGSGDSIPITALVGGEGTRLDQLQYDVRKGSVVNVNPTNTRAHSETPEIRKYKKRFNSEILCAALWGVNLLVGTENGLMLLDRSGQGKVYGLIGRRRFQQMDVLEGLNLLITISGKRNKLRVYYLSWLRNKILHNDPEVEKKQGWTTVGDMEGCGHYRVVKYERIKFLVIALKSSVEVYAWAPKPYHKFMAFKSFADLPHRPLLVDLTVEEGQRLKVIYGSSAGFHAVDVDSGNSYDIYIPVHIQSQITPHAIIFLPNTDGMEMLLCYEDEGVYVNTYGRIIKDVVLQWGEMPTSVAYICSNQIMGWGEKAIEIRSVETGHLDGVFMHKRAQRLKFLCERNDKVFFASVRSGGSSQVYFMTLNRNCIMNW
T5 sequence (P54762 18-984): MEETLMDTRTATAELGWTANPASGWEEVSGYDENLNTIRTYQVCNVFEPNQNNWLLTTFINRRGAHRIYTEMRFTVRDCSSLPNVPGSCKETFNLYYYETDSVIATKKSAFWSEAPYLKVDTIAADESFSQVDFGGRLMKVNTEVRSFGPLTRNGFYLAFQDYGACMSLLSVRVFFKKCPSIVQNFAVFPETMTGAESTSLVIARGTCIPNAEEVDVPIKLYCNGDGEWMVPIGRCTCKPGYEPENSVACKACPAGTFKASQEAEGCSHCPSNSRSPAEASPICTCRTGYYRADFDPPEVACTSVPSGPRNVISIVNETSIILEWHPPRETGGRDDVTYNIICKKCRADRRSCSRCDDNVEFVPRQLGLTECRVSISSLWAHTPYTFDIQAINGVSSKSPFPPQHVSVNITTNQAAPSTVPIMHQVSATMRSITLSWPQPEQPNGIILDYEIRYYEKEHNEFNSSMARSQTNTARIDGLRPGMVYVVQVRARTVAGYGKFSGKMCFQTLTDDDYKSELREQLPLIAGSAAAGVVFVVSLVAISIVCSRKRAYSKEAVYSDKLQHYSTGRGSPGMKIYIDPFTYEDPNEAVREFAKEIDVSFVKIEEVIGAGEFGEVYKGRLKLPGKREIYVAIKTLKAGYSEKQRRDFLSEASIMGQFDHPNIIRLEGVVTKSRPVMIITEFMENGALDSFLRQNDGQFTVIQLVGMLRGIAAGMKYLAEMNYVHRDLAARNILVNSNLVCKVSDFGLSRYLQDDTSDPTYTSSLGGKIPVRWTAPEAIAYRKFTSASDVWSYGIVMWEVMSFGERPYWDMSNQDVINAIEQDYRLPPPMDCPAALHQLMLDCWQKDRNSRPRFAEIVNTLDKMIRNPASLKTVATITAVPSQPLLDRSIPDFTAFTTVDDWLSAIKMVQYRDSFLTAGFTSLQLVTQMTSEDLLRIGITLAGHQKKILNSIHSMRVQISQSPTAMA
T21 sequence (Q13976 whole entry): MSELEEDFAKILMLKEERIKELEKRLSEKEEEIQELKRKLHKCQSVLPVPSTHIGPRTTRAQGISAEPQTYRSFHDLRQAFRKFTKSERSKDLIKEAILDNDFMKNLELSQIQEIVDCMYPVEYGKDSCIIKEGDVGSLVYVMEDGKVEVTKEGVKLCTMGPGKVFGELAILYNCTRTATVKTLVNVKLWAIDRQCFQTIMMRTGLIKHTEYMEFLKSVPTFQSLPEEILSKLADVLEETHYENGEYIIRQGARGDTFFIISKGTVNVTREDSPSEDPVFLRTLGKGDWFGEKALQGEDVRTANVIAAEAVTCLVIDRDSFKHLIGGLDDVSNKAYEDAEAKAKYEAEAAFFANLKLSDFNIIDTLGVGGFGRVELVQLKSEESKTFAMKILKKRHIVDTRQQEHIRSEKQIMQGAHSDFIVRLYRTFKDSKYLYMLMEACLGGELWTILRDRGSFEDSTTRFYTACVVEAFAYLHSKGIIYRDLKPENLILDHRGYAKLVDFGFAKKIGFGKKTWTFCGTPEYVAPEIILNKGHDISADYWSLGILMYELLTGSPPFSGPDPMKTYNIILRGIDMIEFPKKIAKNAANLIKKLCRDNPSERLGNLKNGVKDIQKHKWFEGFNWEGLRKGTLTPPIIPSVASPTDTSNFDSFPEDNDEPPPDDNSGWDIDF

For `COc1ccc2[nH]c3c(=O)[nH]c4ccc(O)cc4c3c2c1` [Compound 55, 2-Hydroxy-10-methoxy-5,7-dihydro-6H-indolo[2,3-c]quinolin-6-one], the inhibition at 1 µM (ABL1 E255K) was 39%, the inhibition at 1 µM (AMPK (A1/B2/G2)) was 67% and the inhibition at 1 µM (AMPK (A2/B1/G2)) was 63%. It also gave an inhibition at 1 µM (CLK3) of 57%, an inhibition at 1 µM (CSNK1A1 (CK1 alpha 1)) of 51% and an inhibition at 1 µM (CSNK1D (CK1 delta)) of 81%. For the same compound, the inhibition at 1 µM (EGFR (ErbB1) T790M) was 30%, the inhibition at 1 µM (EPHB1) was 49% and the inhibition at 1 µM (FGFR1) was 38%. For the same compound, the inhibition at 1 µM (FGFR2 N549H) was 24%, the inhibition at 1 µM (FGFR3) was 3% and the inhibition at 1 µM (FGR) was 81%. The inhibition at 1 µM (GSK3A (GSK3 alpha)) was 82%, the inhibition at 1 µM (IGF1R) was 13% and the inhibition at 1 µM (MAPK12 (p38 gamma)) was 19%. The inhibition at 1 µM (MAPK9 (JNK2)) was 12%, the inhibition at 1 µM (MARK3) was 31% and the inhibition at 1 µM (MINK1) was 66%. It also gave an inhibition at 1 µM (MST4) of 61%, an inhibition at 1 µM (NEK1) of 17% and an inhibition at 1 µM (NEK6) of 8%. For the same compound, the inhibition at 1 µM (NTRK3 (TRKC)) was 93%, the inhibition at 1 µM (PAK1) was 6% and the inhibition at 1 µM (PAK2 (PAK65)) was 6%. It also gave an inhibition at 1 µM (PDK1 Direct) of 17%, an inhibition at 1 µM (PEAK1) of 50% and an inhibition at 1 µM (PIM3) of 33%. The inhibition at 1 µM (PRKACA (PKA)) was 8%, the inhibition at 1 µM (PRKCE (PKC epsilon)) was 10% and the inhibition at 1 µM (PRKCH (PKC eta)) was 15%. It also gave an inhibition at 1 µM (PRKCI (PKC iota)) of 6%, an inhibition at 1 µM (PRKG1) of 11% and an inhibition at 1 µM (PRKX) of 7%. For the same compound, the inhibition at 1 µM (PTK6 (Brk)) was 19%, the inhibition at 1 µM (RET S891A) was 96% and the inhibition at 1 µM (SRPK1) was 7%. For the same compound, the inhibition at 1 µM (STK24 (MST3)) was 63%, the inhibition at 1 µM (TXK) was 22% and the inhibition at 1 µM (TYK2) was 51%.
